Results on 13 molecules are retold here after ChEMBL document CHEMBL1201862, “PubChem BioAssay data set” (2004).

Among the test systems are SK-MEL-5; HCC 2998; TK-10; K562; MOLT-4; U-251; UACC-257; OVCAR-5; IGROV-1; CCRF-CEM; M14; A498; NCI-H226; ACHN; SR; HCT-15; UACC-62.
Common to all, as to assay: NCI anticancer screen, dose series, 48 h

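The compound was tested at five concentrations on cells cultured in 96-well plates, with a 48-hour exposure period. GI50 marks 50% less growth.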 Calls of active or inactive are those of the source. Rule as the data show it: active = GI50 up to about 1.1 µM and inactive = higher.

For the molecule `COc1ccccc1NC(=O)C1=C(C)NC(C)=C(C(=O)Nc2ccccc2OC)C1c1ccc(N(C)C)cc1`, the GI50 in the assay with SK-MEL-5 was 30.8 µM (inactive); in the assay on HCC 2998 it was 14.5 µM (inactive); in the assay with TK-10, 34.8 µM (inactive); with K562, 18.9 µM (inactive); in the assay on MOLT-4, 18.8 µM (inactive); with U-251, 30.4 µM (inactive). Besides, the GI50 with UACC-257 is 27.9 µM (inactive); in the assay on OVCAR-5, 39.2 µM (inactive); in the assay on IGROV-1 it was 33.4 µM (inactive); in the assay on CCRF-CEM, 19.3 µM (inactive); in the assay on M14, 22.5 µM (inactive); with A498, 32.8 µM (inactive). Besides, the GI50 in the assay with NCI-H226 was 19.6 µM (inactive); in the assay on ACHN, 33 µM (inactive).

`COC(=O)C(=Cc1cc(OC)c(OC)c(OC)c1-c1cc2c(cc1C(C)=O)OCO2)C(=O)OC`: the GI50 is 32.7 µM (inactive) in the assay with SK-MEL-5; 50.4 µM (inactive) in the assay on SR; 40.3 µM (inactive) in the assay on HCC 2998; 77.8 µM (inactive) with TK-10; 37.6 µM (inactive) in the assay with K562; 52.2 µM (inactive) in the assay on MOLT-4. The GI50 was 37.2 µM (inactive) in the assay with U-251; 24.2 µM in the assay on HCT-15; 52 µM (inactive) with UACC-257; 43 µM (inactive) with OVCAR-5; 50.1 µM (inactive) with IGROV-1; 32.6 µM (inactive) with UACC-62. The GI50 in the assay on CCRF-CEM was 30.6 µM (inactive); with NCI-H226, 50.9 µM (inactive); in the assay with ACHN it was 46.8 µM (inactive).

As for `O=C1[C@H]2ON(c3ccccc3)C(c3ccc([N+](=O)[O-])cc3)[C@H]2C(=O)N1c1ccc(Cc2ccc(N3C(=O)[C@@H]4ON(c5ccccc5)C(c5ccc([N+](=O)[O-])cc5)[C@@H]4C3=O)cc2)cc1` (some centres not stated), the GI50 in the assay with SK-MEL-5 was 40.1 µM (inactive); with HCC 2998 it was > 100 µM (inactive); in the assay with TK-10, > 100 µM (inactive); in the assay on K562, > 100 µM (inactive); with MOLT-4, > 100 µM (inactive); in the assay with U-251, > 100 µM (inactive). The GI50 in the assay on HCT-15 was greater than 100 µM; in the assay with UACC-257, 98.9 µM (inactive); in the assay with OVCAR-5, > 100 µM (inactive); in the assay with IGROV-1 it was > 100 µM (inactive); with UACC-62, 67.3 µM (inactive); in the assay with CCRF-CEM it was > 100 µM (inactive). Moreover, the GI50 in the assay with M14 was 13.5 µM (inactive); in the assay with A498, > 100 µM (inactive); in the assay on NCI-H226, > 100 µM (inactive); in the assay on ACHN, > 100 µM (inactive).

Consider `NC(=O)N/N=C/C(/C=N/NC(N)=O)[N+](=O)[O-]`, for which the GI50 in the assay with TK-10, with K562, in the assay on UACC-257, in the assay on OVCAR-5, in the assay with IGROV-1 and in the assay with UACC-62 was > 100 µM (inactive) each time. The GI50 in the assay with CCRF-CEM, in the assay with M14, in the assay with A498, in the assay with NCI-H226 and in the assay with ACHN was > 100 µM (inactive) each time.

Regarding `CCCN(CCCC(NC(C)=O)C(=O)NCc1ccccc1)C(=O)NCCCl` (configuration not stated), the GI50 with SR, in the assay with HCC 2998, in the assay on TK-10, with K562, in the assay with MOLT-4 and with U-251 was > 100 µM (inactive) in each case. In addition, the GI50 in the assay on HCT-15 is greater than 100 µM; in the assay on UACC-257, > 100 µM (inactive); in the assay with IGROV-1, > 100 µM (inactive); in the assay with UACC-62, > 100 µM (inactive); in the assay with CCRF-CEM, > 100 µM (inactive); in the assay with M14, > 100 µM (inactive). In addition, the GI50 in the assay on NCI-H226 and in the assay with ACHN was > 100 µM (inactive) each time.

As for `O=C1/C(=C/c2cccc([N+](=O)[O-])c2)COc2ccc(Br)cc21`, the GI50 was > 100 µM (inactive) in the assay with SK-MEL-5; > 100 µM (inactive) in the assay with HCC 2998; > 100 µM (inactive) with TK-10; 22.9 µM (inactive) in the assay with K562; 26.9 µM (inactive) in the assay with MOLT-4; > 100 µM (inactive) in the assay with U-251. In addition, the GI50 in the assay on UACC-257 was > 100 µM (inactive); with OVCAR-5, > 100 µM (inactive); with IGROV-1, > 100 µM (inactive); in the assay with CCRF-CEM, 13.6 µM (inactive); with A498, > 100 µM (inactive); in the assay on ACHN, > 100 µM (inactive).

With `O=C(Cc1cc[n+]([O-])cc1)C(=O)Nc1cc(Cl)c(Cl)cc1Cl`, the GI50 in the assay with SK-MEL-5, in the assay on HCC 2998, in the assay on TK-10, in the assay on K562, in the assay on MOLT-4 and with U-251 was > 100 µM (inactive) in each case. Moreover, the GI50 in the assay with HCT-15 was greater than 100 µM; with UACC-257, > 100 µM (inactive); with OVCAR-5 it was > 100 µM (inactive); in the assay with IGROV-1 it was > 100 µM (inactive); in the assay on UACC-62, > 100 µM (inactive); in the assay on CCRF-CEM, > 100 µM (inactive). Besides, the GI50 with M14, in the assay on A498 and in the assay with ACHN was > 100 µM (inactive) throughout.

In the case of `O=C(Nc1cccs1)c1c(O)[nH]c(=S)[nH]c1=O`, the GI50 in the assay on SK-MEL-5, in the assay on SR, in the assay with TK-10, in the assay with K562, with MOLT-4 and in the assay on U-251 was > 100 µM (inactive) throughout. Further, the GI50 in the assay with HCT-15 was greater than 100 µM; in the assay on UACC-257, > 100 µM (inactive); in the assay with OVCAR-5 it was > 100 µM (inactive); in the assay on IGROV-1, > 100 µM (inactive); in the assay on UACC-62 it was > 100 µM (inactive); with CCRF-CEM, > 100 µM (inactive). Moreover, the GI50 in the assay with M14, in the assay with A498, in the assay on NCI-H226 and with ACHN was > 100 µM (inactive) throughout.

In the case of `Cc1ccccc1/N=N/C(C(=O)c1ccccc1)C(=O)c1ccccc1`, the GI50 in the assay with SK-MEL-5 is 16.6 µM (inactive); with HCC 2998 it was 40.8 µM (inactive); in the assay with TK-10 it was 44.8 µM (inactive); in the assay with K562, 22.6 µM (inactive); in the assay with MOLT-4, 13.4 µM (inactive); in the assay with U-251 it was 16 µM (inactive). Also, the GI50 in the assay on HCT-15 is 17.1 µM; in the assay with UACC-257 it was 26.7 µM (inactive); in the assay on OVCAR-5, 31.1 µM (inactive); in the assay with IGROV-1, 44.2 µM (inactive); with UACC-62 it was 20.9 µM (inactive); in the assay with CCRF-CEM, 9.46 µM (inactive). Moreover, the GI50 with M14 was 18.1 µM (inactive); in the assay with A498, 39 µM (inactive); in the assay with NCI-H226, 11.7 µM (inactive); in the assay with ACHN, 27.4 µM (inactive).

With `CCOC(=O)c1ccn2c(c1)c(C#N)c1nc3ccccc3nc12`, the GI50 in the assay with SK-MEL-5 is 35.6 µM (inactive); with SR it was 32.6 µM (inactive); with HCC 2998, 53.1 µM (inactive); in the assay with TK-10 it was 75.9 µM (inactive); in the assay with K562 it was 33.9 µM (inactive); in the assay on MOLT-4, 18.1 µM (inactive). For the same molecule, the GI50 was 76.7 µM (inactive) in the assay on U-251; 41.6 µM in the assay with HCT-15; > 100 µM (inactive) in the assay on UACC-257; > 100 µM (inactive) in the assay with OVCAR-5; 5.4 µM (inactive) in the assay on IGROV-1; 0.908 µM (active) with UACC-62. Also, the GI50 was 18.5 µM (inactive) with CCRF-CEM, > 100 µM (inactive) in the assay with M14, 85.5 µM (inactive) with A498 and 55.5 µM (inactive) with ACHN.

For `Cc1ccc(C(=O)C(C)N)cc1C` (configuration not stated), the GI50 in the assay on SK-MEL-5, with HCC 2998, in the assay with TK-10, in the assay with K562, with MOLT-4 and in the assay with U-251 was > 100 µM (inactive) each time. The GI50 with UACC-257, in the assay on IGROV-1, in the assay on UACC-62, in the assay with CCRF-CEM, with M14 and in the assay with A498 was > 100 µM (inactive) in each case. The GI50 with NCI-H226 and with ACHN was > 100 µM (inactive) throughout.

`CC(=O)OC1CC2C(C)(C)C(=O)C=C[C@]2(C)C2CCC3(C)C(=CC(=O)C3c3ccoc3)[C@]12C` (some centres not stated): the GI50 is 13.1 µM (inactive) in the assay with SK-MEL-5; 12.3 µM (inactive) in the assay with HCC 2998; 15.7 µM (inactive) in the assay on TK-10; 9.55 µM (inactive) with K562; 13.2 µM (inactive) in the assay with MOLT-4; 11.7 µM in the assay with HCT-15. For the same molecule, the GI50 in the assay on UACC-257 was 17.4 µM (inactive); in the assay on OVCAR-5, 22.4 µM (inactive); with IGROV-1, 16.6 µM (inactive); with UACC-62, 13 µM (inactive); in the assay with CCRF-CEM, 8.47 µM (inactive); in the assay on M14 it was 21 µM (inactive). For the same molecule, the GI50 with A498 is 16.9 µM (inactive); in the assay with NCI-H226, 17.8 µM (inactive); with ACHN it was 16.2 µM (inactive).

As for `COCC1N=C(c2cc(OC)c(OC)c(OC)c2-c2cc3c(cc2[C@H](C)O)OCO3)O[C@H]1c1ccccc1` (some centres not stated), the GI50 in the assay with SK-MEL-5 was 42.4 µM (inactive); in the assay with HCC 2998 it was > 100 µM (inactive); in the assay with TK-10, > 100 µM (inactive); in the assay on K562 it was > 10 µM (inactive); in the assay with MOLT-4 it was 41.6 µM (inactive); in the assay with U-251 it was 65.2 µM (inactive). Further, the GI50 in the assay with HCT-15 is 56.9 µM; with IGROV-1, > 100 µM (inactive); in the assay with UACC-62, > 100 µM (inactive); with CCRF-CEM, > 10 µM (inactive); in the assay with M14, 72.3 µM (inactive); with NCI-H226 it was > 100 µM (inactive). The GI50 in the assay on ACHN is 40.7 µM (inactive).
